Results taken from patent US20100311835A1, “CIS-9, TRANS-11 ISOMER OF CONJUGATED LINOLEIC ACID (CLA) FOR TREATING INFLAMMATORY DISEASES” (COGNIS IP MANAGEMENT GMBH, priority 2003, published 2010).

Legend:
[1] = test system: eosinophilic granuloctyes; test: Apoptosis of eosinophilic granulocytes in vitro; format: cell-based
IL-8 [2] = test: IL-8 in cell culture supernatants by ELISA, stimulated NHBE; format: cell-based, human; conditions: 24 h
Protocol: (§1) • Cell cultures. The transformed human bronchial epithelial cell line BEAS-2B (Clonetics Cell Systems, St. Katharinen, Germany) and the normal human bronchial epithelial cell line in primary culture (American Type Culture Collection, Manassas, Va., USA) were cultured in T-25-tissue flasks in bronchial/tracheal epithelial cell basal medium (BEBM) supplemented with a variety of growth factors including bovine pituitary extract (0,052 mg/mL), human recombinant epidermal growth factor (0.5 ng/mL), hydrocortisone (0.5 μg/mL), epinephrine (0.5 μg/mL), transferrin (0.01 mg/mL), insulin (5 μg/mL), retinoic acid (0.1 ng/mL), triiodthyronine (6.5 ng/mL), gentamicin (0.05 mg/mL) and amphotericin (0.05 μg/mL), all purchased from Clonetics Cell Systems (St. Katharinen, Germany). Cultures were held at 37° C. in a humidified atmosphere of 5% CO2 in air and the medium was changed every other day. • Stimulation of cells and fatty acid supplementation. Cis-9,trans-11-CLA and linoleic acid (LA) were obtained from Matreya Inc. (Pleasant Gap, Pa., USA). Purified fatty acids in oil form were dissolved in 96% ethanol to give a 20-mM stock solution, which was further diluted in growth medium to produce the range of test concentrations (20 μg/mL, 10 μg/mL and 5 μg/mL CLA and LA, respectively). At confluence, the cells were detached by exposure to trypsin/EDTA solution (0.05/0.02% in Ca^2+- and Mg^2+-free phosphate buffered saline; Biochrom AG, Krefeld, Germany) and reseeded in 12-well plates at a concentration of 1×10^5 cells/well and cultured for 24 h to allow the cells to attach to the substratum. The medium was then replaced and a final volume of 1 ml of each CLA- and LA-test concentrations, supplemented with 5 μg LPS/mL (lipopolysaccharide, E-coli serotype 026:B6, Sigma, Taufkirchen, Germany) and 10% serum from allergic donors, was added to the wells. A similar volume of fatty acid-free medium containing the indicated stimuli and 0.4% ethanol, corresponding to the max. volume in experimental wells, was used in stimulated control. 1 ml of fresh growth medium containing 0.4% ethanol without any fatty acid and stimuli underwent the same measures of preparation and represented the unstimulated control. After incubation for 24 h at 37° C., supernatants were harvested, separated from non-adherent cells and cell debris by centrifugation (1300 rpm, 10 min), and kept at −20° C. until cytokine analysis. Cells were trypsinised to determine cell numbers and allow quantification of differences in cell proliferation in response to different treatments. • Measurement of IL-6 and IL-8 in cell culture supernatants. IL-6 and IL-8 production of epithelial cells were estimated in duplicate by enzyme-linked immunosorbent assay using commercially available ELISA kits (Pharmingen, Heidelberg, Germany) according to the manufacturer's guidelines. Standard curves and blank buffer were included in duplicate in each assay. When necessary, samples were diluted to fit into the assay range. Specific interleukin concentrations were expressed as picograms of interleukin per millilitre. • Estimation of cytokine gene expression with RT-PCR. Cultures of BEAS-2B and NHBE at an initial density of 1×10^5 cells/well were stimulated as described above and treated with cis-9,trans-11-CLA or LA in the highest concentration (20 μg/mL) for 4 h or 12 h before total cellular RNA was isolated for cytokine gene expression analysis by reverse transcriptase-polymerase chain reaction. Total RNA preparations were performed by DNase treatment according to the standard protocol of the High-Pure™ RNA isolation kit from Roche (Mannheim, Germany). For RT-PCR analysis, first strand cDNA was synthesized from extracted RNA using random primers, reagents and conditions supplied in the ProSTAR™ First-Strand RT-PCR kit from Stratagene (Amsterdam, Netherlands). One-tenth of the synthesized cDNA was subjected to PCRamplification in a total volume of 25 μl. […]

IL-8 mRNA = test: Quantification of IL-8 mRNA by RT-PCR in stimulated bronchial epithelial cells; format: cell-based, human; conditions: 20 μg/mL, 4 h and 12 h, LPS/serum-stimulated, RT-PCR with cyclophilin as internal standard
Protocol: (§2) • Cell cultures. The transformed human bronchial epithelial cell line BEAS-2B (Clonetics Cell Systems, St. Katharinen, Germany) and the normal human bronchial epithelial cell line in primary culture (American Type Culture Collection, Manassas, Va., USA) were cultured in T-25-tissue flasks in bronchial/tracheal epithelial cell basal medium (BEBM) supplemented with a variety of growth factors including bovine pituitary extract (0,052 mg/mL), human recombinant epidermal growth factor (0.5 ng/mL), hydrocortisone (0.5 μg/mL), epinephrine (0.5 μg/mL), transferrin (0.01 mg/mL), insulin (5 μg/mL), retinoic acid (0.1 ng/mL), triiodthyronine (6.5 ng/mL), gentamicin (0.05 mg/mL) and amphotericin (0.05 μg/mL), all purchased from Clonetics Cell Systems (St. Katharinen, Germany). Cultures were held at 37° C. in a humidified atmosphere of 5% CO2 in air and the medium was changed every other day. • Stimulation of cells and fatty acid supplementation. […] Cells were trypsinised to determine cell numbers and allow quantification of differences in cell proliferation in response to different treatments. • Measurement of IL-6 and IL-8 in cell culture supernatants. […] Specific interleukin concentrations were expressed as picograms of interleukin per millilitre. • Estimation of cytokine gene expression with RT-PCR. […]

IL-6 [3] = test: IL-6 in cell culture supernatants by ELISA, stimulated BEAS-2B; format: cell-based, human
Protocol: as §1

IL-6 [4] = test: IL-6 in cell culture supernatants by ELISA, stimulated NHBE; format: cell-based, human; conditions: 24 h
Protocol: as §1

IL-6 mRNA = test: Quantification of IL-6 mRNA by RT-PCR in stimulated bronchial epithelial cells; format: cell-based, human; conditions: 20 μg/mL, 4 h and 12 h, LPS/serum-stimulated, RT-PCR with cyclophilin as internal standard
Protocol: as §2

IL-8 [5] = test: IL-8 in cell culture supernatants by ELISA, stimulated BEAS-2B; format: cell-based, human
Protocol: as §1

BEAS-2B = test: Proliferation of LPS/serum-stimulated cells (cell numbers after 24 h); format: cell-based, human
Protocol: as §1

NHBE = test: as above; format: cell-based, human
Protocol: as §1

[6] = 5 μg/mL, vs stimulated control+
[7] = 10 μg/mL, vs stimulated control+
[8] = 20 μg/mL, vs stimulated control+
[9] = BEAS-2B, 5 μg/mL, 24 h, vs stimulated control+
[10] = BEAS-2B, 10 μg/mL, 24 h, vs stimulated control+
[11] = BEAS-2B, 20 μg/mL, 24 h, vs stimulated control+
[12] = in vitro, compared to a placebo
[13] = BEAS-2B, 5 μg/mL, 24 h, LPS/serum-stimulated
[14] = BEAS-2B, 10 μg/mL, 24 h, LPS/serum-stimulated

SMILES | pg IL (cytokine release/100.000 cells) (IL-8 [2]; 5 μg/mL) [pg/100.000 cells] | pg IL (cytokine release/100.000 cells) (IL-8 [2]; 10 μg/mL) [pg/100.000 cells] | pg IL (cytokine release/100.000 cells) (IL-8 [2]; 20 μg/mL) [pg/100.000 cells] | IL-8 mRNA accumulation compared with stimulated control (c+) (IL-8 mRNA) | pg IL (cytokine release/100.000 cells) (IL-6 [3]; BEAS-2B, 5 μg/mL, 24 h) [pg/100.000 cells] | pg IL (cytokine release/100.000 cells) (IL-6 [3]; BEAS-2B, 10 μg/mL, 24 h) [pg/100.000 cells] | pg IL (cytokine release/100.000 cells) (IL-6 [3]; BEAS-2B, 20 μg/mL, 24 h) [pg/100.000 cells] | pg IL (cytokine release/100.000 cells) (IL-6 [4]; 5 μg/mL) [pg/100.000 cells] | pg IL (cytokine release/100.000 cells) (IL-6 [4]; 10 μg/mL) [pg/100.000 cells] | pg IL (cytokine release/100.000 cells) (IL-6 [4]; 20 μg/mL) [pg/100.000 cells] | IL-6 mRNA accumulation compared with stimulated control (c+) (IL-6 mRNA) | pg IL (cytokine release/100.000 cells) (IL-8 [5]; BEAS-2B, 5 μg/mL, 24 h) [pg/100.000 cells] | pg IL (cytokine release/100.000 cells) (IL-8 [5]; BEAS-2B, 10 μg/mL, 24 h) [pg/100.000 cells] | pg IL (cytokine release/100.000 cells) (IL-8 [5]; BEAS-2B, 20 μg/mL, 24 h) [pg/100.000 cells] | % inhibition of proliferation (BEAS-2B; [13]) | % inhibition of proliferation (BEAS-2B; [14]) | % inhibition of proliferation (NHBE; 5 μg/mL, LPS/serum-stimulated) | % inhibition of proliferation (NHBE; 10 μg/mL, LPS/serum-stimulated) | other results
CCCCCC/C=C/C=C\CCCCCCCC(=O)O (single isomer, unassigned) [CLA, cis-9,trans-11 isomer of conjugated linoleic acid] | 6212 ± 513 | 5659 ± 812 | 6793 ± 545 | diminished | 983 ± 175 | 841 ± 184 | 792 ± 152 | 2049 ± 262 | 2062 ± 707 | 1731 ± 387 | diminished | 1774 ± 154 | 1667 ± 160 | 1458 ± 136 | 7.9±5.1% | 19.3±5.0% | 5.3 ± 3.7% | 15.4±3.6% | apoptosis of eosinophilic granulocytes [1]: support of apoptosis; % inhibition of IL-8-secretion (IL-8 [2]; [6]): 33.3 ± 8.1%; % inhibition of IL-8-secretion (IL-8 [2]; [7]): 46.0±8.1%; % inhibition of IL-8-secretion (IL-8 [2]; [8]): 35.9 ± 11.4%; % inhibition of IL-6-secretion (IL-6 [3]; [9]): 59.9±7.1%; % inhibition of IL-6-secretion (IL-6 [3]; [10]): 69.7 ± 7.6%; % inhibition of IL-6-secretion (IL-6 [3]; [11]): 76.4±4.4%; reduced expression of IL-6 (summary statement) (IL-6 [3]; [12]): about 70%; % inhibition of IL-6-secretion (IL-6 [4]; [6]): 56.9±4.9%; % inhibition of IL-6-secretion (IL-6 [4]; [7]): 62.3 ± 10.2%; % inhibition of IL-6-secretion (IL-6 [4]; [8]): 68.6±5.3%; % inhibition of IL-8-secretion (IL-8 [5]; [9]): 25.6±3.6%; % inhibition of IL-8-secretion (IL-8 [5]; [10]): 38.8 ± 5.2%; % inhibition of IL-8-secretion (IL-8 [5]; [11]): 55.2±5.2%; reduced expression of IL-8 (summary statement) (IL-8 [5]; [12]): about 50%; % inhibition of proliferation (BEAS-2B; BEAS-2B, 20 μg/mL, 24 h, 5 μg LPS/mL + 10% serum from allergic donors): 32.7±5.0%; inhibition of cell proliferation of bronchial epithelial cells (summary statement) (BEAS-2B; in vitro, epithelial cells, mainly bronchial epithelial cells): up to 30%; % inhibition of proliferation (NHBE; 20 μg/mL, LPS/serum-stimulated): 17.4±2.8%
CCCCC/C=C\C/C=C\CCCCCCCC(=O)O [LA, cis-9,cis-12-octadecadienoic acid, reference compound] | 6820 ± 543 | 6252 ± 462 | 5420 ± 1032 | no effect | 1440 ± 78 | 1220 ± 120 | 1181 ± 256 | 3052 ± 292 | 2906 ± 530 | 2007 ± 924 | no effect | 1483 ± 209 | 1341 ± 110 | 1533 ± 121 | no effect | no effect | no effect | no effect | inhibition at 5 µg/mL (IL-8 [2]; Homo sapiens, 5 μg/mL, vs stimulated control+, read-out: % inhibition of IL-8-secretion): 22.8 ± 5.2%; inhibition at 10 µg/mL (IL-8 [2]; Homo sapiens, 10 μg/mL, vs stimulated control+, read-out: % inhibition of IL-8-secretion): 27.8 ± 10.8%; inhibition at 20 µg/mL (IL-8 [2]; Homo sapiens, 20 μg/mL, vs stimulated control+, read-out: % inhibition of IL-8-secretion): 43.3 ± 14.3%; inhibition at 5 µg/mL (IL-6 [3]; Homo sapiens, BEAS-2B, 5 μg/mL, 24 h, vs stimulated control+, read-out: % inhibition of IL-6-secretion): 23.1 ± 8.9%; inhibition at 10 µg/mL (IL-6 [3]; Homo sapiens, BEAS-2B, 10 μg/mL, 24 h, vs stimulated control+, read-out: % inhibition of IL-6-secretion): 38.4 ± 6.6%; inhibition at 20 µg/mL (IL-6 [3]; Homo sapiens, BEAS-2B, 20 μg/mL, 24 h, vs stimulated control+, read-out: % inhibition of IL-6-secretion): 50.2 ± 14.1%; inhibition at 5 µg/mL (IL-6 [4]; Homo sapiens, 5 μg/mL, vs stimulated control+, read-out: % inhibition of IL-6-secretion): 32.1 ± 5.6%; inhibition at 10 µg/mL (IL-6 [4]; Homo sapiens, 10 μg/mL, vs stimulated control+, read-out: % inhibition of IL-6-secretion): 35 ± 8.6%; inhibition at 20 µg/mL (IL-6 [4]; Homo sapiens, 20 μg/mL, vs stimulated control+, read-out: % inhibition of IL-6-secretion): 60 ± 16.3%; inhibition at 5 µg/mL (IL-8 [5]; Homo sapiens, BEAS-2B, 5 μg/mL, 24 h, vs stimulated control+, read-out: % inhibition of IL-8-secretion): 19.3 ± 8.7%; inhibition at 10 µg/mL (IL-8 [5]; Homo sapiens, BEAS-2B, 10 μg/mL, 24 h, vs stimulated control+, read-out: % inhibition of IL-8-secretion): 30.6 ± 3.6%; inhibition at 20 µg/mL (IL-8 [5]; Homo sapiens, BEAS-2B, 20 μg/mL, 24 h, vs stimulated control+, read-out: % inhibition of IL-8-secretion): 33.5 ± 5%; effect on proliferation at lower concentrations (BEAS-2B; BEAS-2B, concentrations below 20 μg/mL, 24 h): caused cell growth; inhibition at 20 µg/mL (BEAS-2B; Homo sapiens, BEAS-2B, 20 μg/mL, 24 h, 5 μg LPS/mL + 10% serum from allergic donors): 4.7 ± 6.9%; inhibition at 20 µg/mL (NHBE; Homo sapiens, 20 μg/mL, LPS/serum-stimulated): 8.4 ± 2.1%; effect on proliferation at lower concentrations (NHBE; concentrations below 20 μg/mL): caused cell growth
